How the values were obtained:
[1] = test system: amyloid precursor protein (APP) proteolysis; assay: Repressor Release Assay (RRA); assay type: cell-based; set-up: key to RRA data (footnote symbols): **: Inactive due to toxicity; however, this compound, at 3-4 μM, reduces Aβ levels by 50% in CHO cells transfected with human APP695 as measured by ELISA without exhibiting toxicity.; ***: Inactive; however, this compound, at 1-4 μM, reduces Aβ levels by 50% in CHO cells transfected with human APP695 as measured by ELISA without exhibiting toxicity; settings: transfected CHO-K1 cells; for fold induction at 20 µg/mL: Cricetulus griseus, CHO-K1, all compounds tested at 20 μg/mL, luciferase activity over diluent control, read-out: RRA data (Fold increase of APPI)
Protocol: The beta amyloid inhibitory activity of many of the compounds of the present invention has been determined using the Repressor Release Assay (RRA). See, Table 3 below. A compound is considered active in RRA if it leads to at least a 1.5 fold increase in luciferase activity at 20 μg/mL and is non-toxic.
The compound is considered active in RRA if it leads to at least a 1.5 fold increase in APPI as measured by an increase in luciferase activity at 20 μg/mL and is non-toxic. Shuey, D. J., Sheiffele, P., Jones, D., Cockett, M. I., and Quinet, E. M. (1999) Repressor release: a useful tool for monitoring amyloid precursor protein (APP) proteolysis in mammalian cells. Society for Neuroscience Abstracts, Vol. 25, 29th Annual Meeting of Society for Neuroscience, Miami Beach, Fla., Oct. 23-28, 1999.
CHO—K1 cells are cultured in whole DMEM media (DMEM—High Glucose with 10% fetal bovine serum, 1% Non-essential Amino Acids, and 1% Penicillin-Streptomycin) at 37° C. with 5% CO2. Two million cells are plated into 10-cm dishes 24 hrs prior to transfection.
Transient transfections are completed as recommended by Gibco BRL using their Lipofectamine Plus system. First, 6 μg of pRSVO-luc and 6 μg of APP-lacI construct DNA are added to 460 μL Opti-Mem transfection media and incubated with 30 μL Plus reagent for 15 minutes. Then, a lipid mixture of 40 μL Lipofectamine reagent and 460 μL Opti-Mem transfection media is incubated with the DNA-Plus reagent mixture for 15 minutes. During the DNA-lipid incubation, the CHO—K1 cells are washed once and covered in 5.0 mL DMEM media without Penicillin-Streptomycin. The DNA-lipid preparation is then layered onto these cells and incubated at 37° C. overnight.
One and one half million transfected cells per well (100 μL total volume) are plated into sterile, opaque Packard 96-well Cultur-Plates in clear DMEM whole media (DMEM—without phenol red) and incubated at 37° C. with 5% CO2 for 3-5 hours.
Compounds are diluted using two different protocols; one protocol is used for compounds supplied neat (weighed powder in vial) and the other protocol is used for compounds supplied in solution (20 mM in DMSO in 96-well plates). For both protocols, 25 mM Hepes and 25 mM Hepes/1% DMSO are prepared fresh to be used as diluent. The Hepes/DMSO is used as the diluent control on all experimental plates.
The following Table 1 depicts the steps for compound dilution (the last step is the addition of compound to cells/media in tissue culture plate):
Because some compounds arrive in 96-well format at 20 mM, the following Table 2 represents the protocol for their dilution (an average molecular weight of these compounds was used to calculate these dilutions and as above, the last step is the addition of compound to cells/media in tissue culture plate):
Once compounds are diluted, they are applied in duplicate on cells in tissue culture plates (prepared above). Cells are incubated with compound at 37° C. with 5% CO2 for an additional 36-48 hours.
Luciferase assays (LucLite reagent, Packard) are performed and are read on a Packard TopCount instrument. Media is removed from each 96-well plate and replaced with 100 μL PBS per well (with Mg^2+ and Ca^2+). An equal volume (100 μL) of the LucLite lysis/substrate buffer is added to each well and the plates are sealed and mixed in the dark on a rotary shaker for 15-30 minutes at room temperature. Luciferase readings are then taken on the TopCount instrument. Measurements are expressed as relative light units (RLU) and are calculated and analyzed in MS Excel as follows:
Fold Increase: amount of luciferase activity (measured in relative light units) over diluent control.
SEM: standard error of the mean for fold increase.
Activity: A compound is considered active if it results in at least a 1.5 fold increase in luciferase activity at 20 μg/mL.
Toxicity: determined by loss of signal (<0.75 fold increase).

[2] = test system: beta amyloid 40; assay: Aβ40/42 ELISA Assay (Aβ40); assay type: cell-based; settings: Cricetulus griseus; CHO cells carrying the APP-REP-NL plasmid, 22 hours, sandwich ELISA
Protocol: (§1) Compounds are diluted from DMSO stocks to 2 μM and below in a cell culture medium. Compounds are then applied to CHO cells carrying the APP-REP-NL plasmid [Sudhir et. al, J. Biolog. Chem. 267:25602-25608 (1992)] for a period of 22 hours. After the conditioning period, medium is collected, diluted in assay buffer containing protein, and samples, controls, and synthetic peptide standards are incubated on a prepared ELISA plate. Using a sandwich ELISA with antibodies specifically directed against the carboxyl terminus of beta amyloid 40 or 42 (analogous to the method reported by Haugabook et al., J. Neurosci. Methods 108:171-179 (2001) but using goat anti-mouse IgG1 (source: Southern Biotech) as the anchor, 6E10 as the capture antibody (Source: SENETEK), rabbit antiAβ40 and antiAβ42 (source: QCB) and APL-donkey anti-rabbit IgG (H+L, source: Southern Biotech) as the detection antibody), the effect of the compound treatment on the cellular production of extracellular beta amyloid is quantified. Cells treated with compound are subsequently incubated in cell culture medium containing MTS-formazan. After a short incubation period, MTS/medium containing plates are read in a spectrophotometer to determine the extent to which compound toxicity affected the cell's metabolism and ability to synthesize beta amyloid.
(§2) A. Test Samples: compound samples are supplied as 20 mM stock solutions in a 100% DMSO solution.
(§3) B. APP-REP-NL cells: Qualified cell lines are carried from week to week using 1:100 dilutions and are cultured in DMEM supplemented with 1× antibiotic/antimycotic, 200 ug/ml of G418 antibiotic, and 10% certified fetal calf serum. Cells are also banked in liquid nitrogen. Periodically, beta amyloid production is assessed, and cells are either kept in culture or replaced with progenitors at full expression.
(§4) C. Antibodies: From certified lots that have already been qualified in this assay. Antibodies are stored in small frozen aliquots at −80° C. that are thawed and used.
(§5) A compound is considered active if it has an EC50 for Aβ40 reduction of <100 μM and no toxicity at doses in the vicinity of the EC50.

[3] = test system: beta amyloid 42; assay: Aβ40/42 ELISA Assay (Aβ42); assay type: cell-based; settings: CHO cells carrying the APP-REP-NL plasmid, 22 hours, sandwich ELISA; for EC50: Cricetulus griseus
Protocol: as §1, §2, §3, §4, §5

Row | SMILES | fold induction at 20 µg/mL [1] | EC50 [2] [µM] | EC50 [3] [µM] | Effect on Aβ42 production [3] | RRA data (footnote symbols) ([1]; tested at 20 μg/mL) | melting point [°C]
1 | Cc1cccc(-n2nccc2C(NS(=O)(=O)c2ccc(Cl)s2)C(C)C)c1 (centres unmarked) [Example 16, 5-Chloro-N-{2-methyl-1-[1-(3-methylphenyl)-1H-pyrazol-5-yl]propyl}thiophene-2-sulfonamide] | 4 | 3.5 | 4.4 |  |  | 
2 | CCC(CC)C(NS(=O)(=O)c1ccc(Cl)s1)c1ccnn1-c1ccc(C(F)(F)F)cc1 (centres unmarked) [Example 18, 5-Chloro-N-(2-ethyl-1-{1-[4-(trifluoromethyl)phenyl]-1H-pyrazol-5-yl}butyl)thiophene-2-sulfonamide] | 2.3 | 5.9 | 10.7 |  |  | 
3 | CCC(CC)C(NS(=O)(=O)c1ccc(Cl)s1)c1ncnn1Cc1ccc(OC(F)(F)F)cc1 (centres unmarked) [Example 20, 5-Chloro-N-(2-ethyl-1-{1-[4-(trifluoromethoxy)benzyl]-1H-1,2,4-triazol-5-yl}butyl)thiophene-2-sulfonamide] | 9.8 | 2.4 | 4.3 |  |  | 
4 | CCC(CC)C(NS(=O)(=O)c1ccc(Cl)s1)c1ncnn1Cc1ccccc1 (centres unmarked) [Example 22, N-[1-(1-Benzyl-1H-1,2,4-triazol-5-yl)-2-ethylbutyl]-5-chlorothiophene-2-sulfonamide] | 7.2 | 1.5 | 1.5 |  |  | 
5 | CCC(CC)C(NS(=O)(=O)c1ccc(Cl)s1)c1nccn1Cc1ccc(OC)cc1 (centres unmarked) [Example 29, 5-Chloro-N-{2-ethyl-1-[1-(4-methoxybenzyl)-1H-imidazol-2-yl]butyl}thiophene-2-sulfonamide] | 1.9 | 50.7 | 52.5 |  |  | 
6 | CCC(CC)C(NS(=O)(=O)c1ccc(Cl)s1)c1nccn1Cc1ccc(O)cc1 (centres unmarked) [Example 30, 5-Chloro-N-{2-ethyl-1-[1-(4-hydroxybenzyl)-1H-imidazol-2-yl]butyl}thiophene-2-sulfonamide] | 8.6 | 5.2 | 9.8 |  |  | 
7 | COc1ccc(Cn2cccc2C(NS(=O)(=O)c2ccc(Cl)s2)C(C)C)cc1 (centres unmarked) [Example 32, 5-Chloro-N-{1-[1-(4-methoxybenzyl)-1H-pyrrol-2-yl]-2-methylpropyl}thiophene-2-sulfonamide] | 6.6 | 13.3 |  | increase |  | 
8 | CCC(CC)C(NS(=O)(=O)c1ccc(Cl)s1)c1ccnn1OCc1ccccc1 (centres unmarked) [Example 33, N-{1-[1-(Benzyloxy)-1H-pyrazol-5-yl]-2-ethylbutyl}-5-chlorothiophene-2-sulfonamide] |  | 2.6 | 4.3 |  | ** | 
9 | O=S(=O)(NC(c1ccc(F)cc1)c1ccnn1-c1ccc(F)cc1)c1ccc(Cl)s1 (centres unmarked) [Example 34, 5-Chloro-N-{(4-fluorophenyl) [1-(4-fluorophenyl)-1H-pyrazol-5-yl]methyl}thiophene-2-sulfonamide] |  | 5.8 | 10.1 |  |  | 159 to 160
10 | CCC(CC)C(NS(=O)(=O)c1ccc(Cl)cc1)c1ccnn1-c1ccccc1 (centres unmarked) [Example 36, 4-Chloro-N-[2-ethyl-1-(1-phenyl-1H-pyrazol-5-yl)butyl]benzenesulfonamide] |  | 23 |  | increase |  | 135 to 136.4
11 | CCC(CC)C(NS(=O)(=O)c1ccc(C#N)cc1)c1ccnn1-c1ccccc1 (centres unmarked) [Example 37, 4-Cyano-N-[2-ethyl-1-(1-phenyl-1H-pyrazol-5-yl)butyl]benzenesulfonamide] |  | 85.2 |  | increase |  | 134.6 to 136.6
12 | CCC(CC)C(c1ccnn1-c1ccccc1)N(C)S(=O)(=O)c1ccc(Cl)cc1 (centres unmarked) [Example 44, 4-Chloro-N-[2-ethyl-1-(1-phenyl-1H-pyrazol-5-yl)butyl]-N-methylbenzenesulfonamide] |  | 35.7 |  |  |  | 86.5 to 89

Source: patent US7674813B2, “Heterocyclic sulfonamide inhibitors of beta amyloid production containing an azole” (Wyeth, priority 2004, dated 2010)
